Key:
HLA-B*57:01 [1] = molecular target: T1, HLA-B*57:01 (Homo sapiens, UniProt P01889, D201E/D98Y/E176V/E187L/E204Q/E69M/E70A/G107R/I90N/K202T/L105A/L119I/N104I/N87E/Q89R/Q94S/R106L/R155S/R180L/R86G/S101N/S121V/S35A/S48A/T118I/V36M/Y140S/Y91M); conditions: PepV HSITYLLPV; known; cited from earlier work
HLA-B*57:01 [2] = molecular target: T1, HLA-B*57:01; test: MHC refolding ELISA (capture ELISA of refolded MHC-peptide complex); type: biochemical; design: Denatured heavy chain (final concentration 1 μM)
Description: FIG. 13. Primary assay: refolding ELISA.
Refolding reactions were set up in 96-well plates on ice by the successive addition of the following: • 1. Refolding Buffer (400 mM Arg-HCl, 100 mM Tris 8.0, 5 mM glutathione (GSH), 0.5 mM glutathione disulfide (GSSG), 1× cOmplete protease inhibitor cocktail); • 2. Beta-2-microglobulin (final concentration 2 μM). • 3. Peptide (final concentration 40 μM). • 4. Denatured heavy chain (final concentration 1 μM).
[…] Meanwhile, 96-well ELISA plate (Coming 3361) was treated with W6/32 (5 μg/mL) at 4° C. overnight. The plate was washed with PBS (2×200 μL), then blocked with 375 μL 3% BSA/PBS at 23° C. for 1 h. After washing the plate with PBST (3×200 μL), 90 μL 1% BSA/PBS was added to each well.
Detection of refolding was performed as follows: • 1. Add 10 μL of the refolding mixture to each well of the ELISA plate. • 2. Incubate the plate with shaking at 23° C. for 1 h. • 3. Wash plate with 1% BSA/PBS (3×200 μL). • 4. Add 50 μL BBM.1-HRP (1 μg/mL in 1% BSA/PBS) and incubate the plate with shaking at 23° C. for 1 h. • 5. Wash plate with PBST (3×200 μL). • 6. Wash plate with PBS (1×100 μL). • 7. Add 50 μL TMB Ultra and incubate the plate with shaking for 5 min. • 8. Stop the reaction by addition of 20 μL 2.0 M sulfuric acid. • Read absorbance at 450 nm within 10 min. […]

SMILES | stabilization of PepV in HLA-B*57:01 (HLA-B*57:01 [1]) | stabilization of the presentation of mutant K-Ras peptides by HLA-B*57:01 (HLA-B*57:01 [2]; peptide panel VVVGAVGVGG/A/V/I/K/W and HSITYLLPV (FIG. 8, FIG. 9)) | MHC-peptide complex formation after 72 h (HLA-B*57:01 [2]; 40 μM G12V 7-16, 1% DMSO, 10° C., 72 hours)
Nc1nc(NC2CC2)c2ncn([C@H]3C=C[C@@H](CO)C3)c2n1 [abacavir] | stabilized | induced stabilization | –
CNS(=O)(=O)c1cc(Nc2nccc(N(C)c3ccc4nn(C)c(C)c4c3)n2)ccc1C [09-045B] | – | – | may be less susceptible to this instability
